# Measured values from patent US7022667B2, “O-derivatized nocathiacin derivatives” (Bristol-Myers Squibb Company, priority 2002, dated 2006).
# Key:
# Experiment in all cases: MIC, broth micro dilution assay (NCCLS)
# Type in all cases: cell-based
# [1] = system: Enterococcus faecalis A20688; settings: Mueller-Hinton medium, 35° C., 18 hours
# Description: (§1) The serial broth dilution method used Mueller-Hinton medium except for the Streptococcus pneumoniae which was tested in 50% Mueller-Hinton medium and 50% Todd Hewitt medium. The final bacterial inoculate contained approximately 5×10^5 cfu/well and was run on microtiter plates. The volume of each well was 100 μL and the plates were incubated at 35° C. for 18 hours in ambient air. The MIC was defined as the lowest drug concentration that prevented visible growth.
# [2] = system: Staphylococcus aureus A15090; settings: Mueller-Hinton medium, 35° C., 18 hours
# Description: as §1
# [3] = system: Streptococcus pneumoniae A28272; settings: 50% Mueller-Hinton medium and 50% Todd Hewitt medium, 35° C., 18 hours
# Description: as §1
SMILES,MIC (μg/mL) Enterococcus faecalis A20688 [1],MIC (μg/mL) Staphylococcus aureus A15090 [2],MIC (μg/mL) Streptococcus pneumoniae A28272 [3]
C=C(NC(=O)c1csc(-c2nc3c(cc2OCC(=O)O)-c2nc(cs2)C(=O)NC(C(C)O)C(=O)NC(=C(C)OC)c2nc(cs2)C(=O)NC2c4nc(cs4)C(=O)NC(COC(=O)c4c5c6c(cccc6n4OCC(=O)O)COC(=O)C(OC4CC(C)(O)C(N(C)C)C(C)O4)C2OC5)c2nc-3cs2)n1)C(N)=O.O=C(O)C(F)(F)F (stereo not drawn) [Example 20],>128 µg/mL,16 µg/mL,0.5 µg/mL
C=C(NC(=O)c1csc(-c2nc3c(cc2O)-c2nc(cs2)C(=O)NC(C(C)O)C(=O)NC(=C(C)OC)c2nc(cs2)C(=O)NC2c4nc(cs4)C(=O)NC(COC(=O)c4c5c6c(cccc6n4OC(C)=O)COC(=O)C(OC4CC(C)(O)C(N(C)C)C(C)O4)C2OC5)c2nc-3cs2)n1)C(N)=O (stereo not drawn) [Example 23],0.25 µg/mL,0.03 µg/mL,0.06 µg/mL
C=C(NC(=O)c1csc(-c2nc3c(cc2O)-c2nc(cs2)C(=O)NC(C(C)O)C(=O)NC(=C(C)OC)c2nc(cs2)C(=O)NC2c4nc(cs4)C(=O)NC(COC(=O)c4c5c6c(cccc6n4OP(=O)(O)OCCCl)COC(=O)C(OC4CC(C)(O)C(N(C)C)C(C)O4)C2OC5)c2nc-3cs2)n1)C(N)=O (stereo not drawn) [Example 65],0.5 µg/mL,0.25 µg/mL,0.03 µg/mL
C=C(NC(=O)c1csc(-c2nc3c(cc2OCC(N)=O)-c2nc(cs2)C(=O)NC(C(C)O)C(=O)NC(=C(C)OC)c2nc(cs2)C(=O)NC2c4nc(cs4)C(=O)NC(COC(=O)c4c5c6c(cccc6n4OCC(N)=O)COC(=O)C(OC4CC(C)(O)C(N(C)C)C(C)O4)C2OC5)c2nc-3cs2)n1)C(N)=O (stereo not drawn) [Example 9],4.0 µg/mL,2.0 µg/mL,0.125 µg/mL
C=C(NC(=O)c1csc(-c2nc3c(cc2O)-c2nc(cs2)C(=O)NC(C(C)O)C(=O)NC(=C(C)OC)c2nc(cs2)C(=O)NC2c4nc(cs4)C(=O)NC(COC(=O)c4c5c6c(cccc6n4OC(=O)N(C)CCO)COC(=O)C(OC4CC(C)(O)C(N(C)C)C(C)O4)C2OC5)c2nc-3cs2)n1)C(N)=O (stereo not drawn) [Example 61],0.03 µg/mL,0.03 µg/mL,0.0005 µg/mL
C=C(NC(=O)c1csc(-c2nc3c(cc2O)-c2nc(cs2)C(=O)NC(C(C)O)C(=O)NC(=C(C)OC)c2nc(cs2)C(=O)NC2c4nc(cs4)C(=O)NC(COC(=O)c4c5c6c(cccc6n4OCCN4CCOCC4)COC(=O)C(OC4CC(C)(O)C(N(C)C)C(C)O4)C2OC5)c2nc-3cs2)n1)C(N)=O.O=C(O)C(F)(F)F (stereo not drawn) [Example 27],0.06 µg/mL,0.25 µg/mL,0.015 µg/mL
C=C(NC(=O)c1csc(-c2nc3c(cc2O)-c2nc(cs2)C(=O)NC(C(C)O)C(=O)NC(=C(C)OC)c2nc(cs2)C(=O)NC2c4nc(cs4)C(=O)NC(COC(=O)c4c5c6c(cccc6n4OC(=O)NC)COC(=O)C(OC4CC(C)(O)C(N(C)C)C(C)O4)C2OC5)c2nc-3cs2)n1)C(N)=O (stereo not drawn) [Example 60],0.06 µg/mL,0.125 µg/mL,0.001 µg/mL
COC(C)=C1NC(=O)C(C(C)O)NC(=O)c2csc(n2)-c2cc(O)c(-c3nc(C(N)=O)cs3)nc2-c2csc(n2)C2COC(=O)c3c4c5c(cccc5n3OCCCS(=O)(=O)O)COC(=O)C(OC3CC(C)(O)C(N(C)C)C(C)O3)C(OC4)C(NC(=O)c3csc1n3)c1nc(cs1)C(=O)N2 (stereo not drawn) [Example 53],1.0 µg/mL,0.25 µg/mL,0.125 µg/mL
C=C(NC(=O)c1csc(-c2nc3c(cc2OP(=O)(OCc2ccccc2)OCc2ccccc2)-c2nc(cs2)C(=O)NC(C(C)O)C(=O)NC(=C(C)OC)c2nc(cs2)C(=O)NC2c4nc(cs4)C(=O)NC(COC(=O)c4c5c6c(cccc6n4O)COC(=O)C(OC4CC(C)(O)C(N(C)C)C(C)O4)C2OC5)c2nc-3cs2)n1)C(N)=O (stereo not drawn) [Example 34],1.0 µg/mL,0.25 µg/mL,0.125 µg/mL
C=CCOc1cc2c(nc1-c1nc(C(=O)NC(=C)C(N)=O)cs1)-c1csc(n1)C1COC(=O)c3c4c5c(cccc5n3OCC=C)COC(=O)C(OC3CC(C)(O)C(N(C)C)C(C)O3)C(OC4)C(NC(=O)c3csc(n3)C(=C(C)OC)NC(=O)C(C(C)O)NC(=O)c3csc-2n3)c2nc(cs2)C(=O)N1 (stereo not drawn) [Example 74],0.25 µg/mL,0.06 µg/mL,0.0005 µg/mL
C=C(NC(=O)c1csc(-c2nc3c(cc2O)-c2nc(cs2)C(=O)NC(C(C)O)C(=O)NC(=C(C)OC)c2nc(cs2)C(=O)NC2c4nc(cs4)C(=O)NC(COC(=O)c4c5c6c(cccc6n4OS(=O)(=O)[O-])COC(=O)C(OC4CC(C)(O)C(N(C)C)C(C)O4)C2OC5)c2nc-3cs2)n1)C(N)=O.[Na+] (stereo not drawn) [Example 64],0.125 µg/mL,1.0 µg/mL,0.06 µg/mL
C=C(NC(=O)c1csc(-c2nc3c(cc2OC)-c2nc(cs2)C(=O)NC(C(C)O)C(=O)NC(=C(C)OC)c2nc(cs2)C(=O)NC2c4nc(cs4)C(=O)NC(COC(=O)c4c5c6c(cccc6n4OC)COC(=O)C(OC4CC(C)(O)C(N(C)C)C(C)O4)C2OC5)c2nc-3cs2)n1)C(N)=O (stereo not drawn) [Example 18],0.015 µg/mL,0.007 µg/mL,0.001 µg/mL
C=C(NC(=O)c1csc(-c2nc3c(cc2OCC(=O)OC)-c2nc(cs2)C(=O)NC(C(C)O)C(=O)NC(=C(C)OC)c2nc(cs2)C(=O)NC2c4nc(cs4)C(=O)NC(COC(=O)c4c5c6c(cccc6n4OCC(=O)OC)COC(=O)C(OC4CC(C)(O)C(N(C)C)C(C)O4)C2OC5)c2nc-3cs2)n1)C(N)=O (stereo not drawn) [Example 19],0.125 µg/mL,0.06 µg/mL,0.003 µg/mL
C=C(NC(=O)c1csc(-c2nc3c(cc2O)-c2nc(cs2)C(=O)NC(C(C)O)C(=O)NC(=C(C)OC)c2nc(cs2)C(=O)NC2c4nc(cs4)C(=O)NC(COC(=O)c4c5c6c(cccc6n4OCCCN(CC)CC)COC(=O)C(OC4CC(C)(O)C(N(C)C)C(C)O4)C2OC5)c2nc-3cs2)n1)C(N)=O (stereo not drawn) [Example 51],0.125 µg/mL,0.5 µg/mL,0.015 µg/mL

# The next lines start with the values.
MIC (μg/mL) Enterococcus faecalis A20688 [1],MIC (μg/mL) Staphylococcus aureus A15090 [2],MIC (μg/mL) Streptococcus pneumoniae A28272 [3],SMILES
0.015 µg/mL,0.015 µg/mL,0.003 µg/mL,C=C(NC(=O)c1csc(-c2nc3c(cc2OC)-c2nc(cs2)C(=O)NC(C(C)O)C(=O)NC(=C(C)OC)c2nc(cs2)C(=O)NC2c4nc(cs4)C(=O)NC(COC(=O)c4c5c6c(cccc6n4O)COC(=O)C(OC4CC(C)(O)C(N(C)C)C(C)O4)C2OC5)c2nc-3cs2)n1)C(N)=O (stereo not drawn) [Example 1]
0.25 µg/mL,0.25 µg/mL,0.007 µg/mL,C=C(NC(=O)c1csc(-c2nc3c(cc2O)-c2nc(cs2)C(=O)NC(C(C)O)C(=O)NC(=C(C)OC)c2nc(cs2)C(=O)NC2c4nc(cs4)C(=O)NC(COC(=O)c4c5c6c(cccc6n4OCCO)COC(=O)C(OC4CC(C)(O)C(N(C)C)C(C)O4)C2OC5)c2nc-3cs2)n1)C(N)=O (stereo not drawn) [Example 36]
4.0 µg/mL,8.0 µg/mL,0.007 µg/mL,C=C(NC(=O)c1csc(-c2nc3c(cc2OCC(=O)OC(C)(C)C)-c2nc(cs2)C(=O)NC(C(C)O)C(=O)NC(=C(C)OC)c2nc(cs2)C(=O)NC2c4nc(cs4)C(=O)NC(COC(=O)c4c5c6c(cccc6n4OCC(=O)OC(C)(C)C)COC(=O)C(OC4CC(C)(O)C(N(C)C)C(C)O4)C2OC5)c2nc-3cs2)n1)C(N)=O (stereo not drawn) [Example 68]
0.06 µg/mL,0.03 µg/mL,0.015 µg/mL,COC(C)=C1NC(=O)C(C(C)O)NC(=O)c2csc(n2)-c2cc(OCC(=O)OC(C)(C)C)c(-c3nc(C(N)=O)cs3)nc2-c2csc(n2)C2COC(=O)c3c4c5c(cccc5n3OCC(=O)OC(C)(C)C)COC(=O)C(OC3CC(C)(O)C(N(C)C)C(C)O3)C(OC4)C(NC(=O)c3csc1n3)c1nc(cs1)C(=O)N2 (stereo not drawn) [Example 82]
4.0 µg/mL,8.0 µg/mL,0.125 µg/mL,C=C(NC(=O)c1csc(-c2nc3c(cc2OCC(=O)N(C)C)-c2nc(cs2)C(=O)NC(C(C)O)C(=O)NC(=C(C)OC)c2nc(cs2)C(=O)NC2c4nc(cs4)C(=O)NC(COC(=O)c4c5c6c(cccc6n4OCC(=O)N(C)C)COC(=O)C(OC4CC(C)(O)C(N(C)C)C(C)O4)C2OC5)c2nc-3cs2)n1)C(N)=O (stereo not drawn) [Example 71]
0.5 µg/mL,0.25 µg/mL,0.06 µg/mL,C=C(NC(=O)c1csc(-c2nc3c(cc2OC(=O)C(C)(C)C(=O)OCc2ccccc2)-c2nc(cs2)C(=O)NC(C(C)O)C(=O)NC(=C(C)OC)c2nc(cs2)C(=O)NC2c4nc(cs4)C(=O)NC(COC(=O)c4c5c6c(cccc6n4O)COC(=O)C(OC4CC(C)(O)C(N(C)C)C(C)O4)C2OC5)c2nc-3cs2)n1)C(N)=O (stereo not drawn) [Example 31]
1.0 µg/mL,1.0 µg/mL,0.03 µg/mL,C=C(NC(=O)c1csc(-c2nc3c(cc2OP(=O)(O)OCCCl)-c2nc(cs2)C(=O)NC(C(C)O)C(=O)NC(=C(C)OC)c2nc(cs2)C(=O)NC2c4nc(cs4)C(=O)NC(COC(=O)c4c5c6c(cccc6n4O)COC(=O)C(OC4CC(C)(O)C(N(C)C)C(C)O4)C2OC5)c2nc-3cs2)n1)C(N)=O (stereo not drawn) [Example 35]
